Data set [1] deals with human FGF-R1 (Homo sapiens, UniProt P11362, C488A/C584S/L457V). Description: FGF-R spectrophotometric assay. The class given is biochemical. Particulars: for inhibition at 1 µM: compound concentration 1 µM, read-out: FGF-P* (% inhibition). As for the experimental part: The spectrophotometric assay was carried out as described above for VEGF-R2, except for the following changes in concentration: FGF-R = 50 nM, ATP = 2 mM, and poly(E4Y1) =15 mM.

Data set [2] has as its target LCK tyrosine kinase (Homo sapiens, UniProt P06239, C224D/P223M). Description: LCK spectrophotometric assay. It is filed as biochemical. Particulars: read-out: Lck-P* (% inhibition). As for the experimental part: The spectrophotometric assay was carried out as described above for VEGF-R2, except for the following changes in concentration: LCK = 60 nM, MgCl2 = 0 mM, poly(E4Y1) = 20 mM.

Data set [3] deals with T1, phosphorylated Tie-2 (aa 775-1122) (Homo sapiens, UniProt Q02763).
T1 construct: 4 to 12 nM phosphorylated Tie-2 (aa 775-1122); made in house; host or cells: insect cells
As to the kind of experiment: TIE-2 spectrophotometric assay. As to conditions: for inhibition at 1 µM: Table 5, bold values spectrophotometric assay, non-bolded DELFIA assay (bold not visible here), read-out: % Inhibition @ 1 µM Tie2-P. It is filed as biochemical. How it is done: This construct also carries a R774M mutation, which serves as the initiating methionine residue in translation.
The kinase-catalyzed production of ADP from ATP that accompanies phosphoryl transfer to the random copolymer poly(Glu4 Tyr) was coupled to the oxidation of NADH through the activities of pyruvate kinase (PK) and lactate dehydrogenase (LDH). NADH conversion to NAD* was monitored by the decrease in absorbance at 340 nm (ε = 6.22 cm^-1mM^-1) using a Beckman DU650 spectrophotometer. Typical reaction solutions contained 1 mM phosphoenolpyruvate, 0.24 mM NADH, 40 mM MgCl2, 5 mM DTT, 2.9 mg/mL poly(Glu4Tyr), 0.5 mM ATP, 15 units/mL PK, 15 units/mL LDH in 100 mM HEPES, pH 7.5. […]

The subject of data set [4] is human umbilical vein endothelial cells (HUVEC). As to the kind of experiment: HUVEC proliferation assay (VEGF-stimulated, MTT). It is filed as cell-based. Particulars: Homo sapiens, HUVEC.
Data set [5] has as its system lung cancer cells (line MV522). Description: Cancer cell proliferation (MV522) assay. It is filed as cell-based. As for the experimental part:
The protocol for assessing cellular proliferation in cancer cells is similar to that used for assessments in HUVEC cells. Two thousand lung cancer cells (line MV522, acquired from American Tissue Cultural Collection) were seeded in growth media (RPMI1640 medium supplemented with 2 mM glutamine and 10% FBS). Cells are allowed to attach for 1 day prior to addition of test agents and /or vehicles. Cells are treated simultaneously with the same test agents used in the HUVEC assay. Cellular proliferation is quantified by MTT dye reduction assay 72 hours after exposure to test agents. The total length of the assay is 4 days vs. 5 for HUVEC cells because MV522 cells are not exposed to starvation medium.

Data set [6] is described as follows: in vitro. The class given is in vitro ADME, human. Particulars: human liver microsomes, 5 µM test compound, 37 °C, 2 h; for remaining at 2 h, 5 µM: read-out: % remain (HLM, 2 h). The gist of the method: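 HLM diluted to 5 mg/mL in 100 mM KPO4, preincubated 10 min at 37 °C with NADPH-regenerating system. Compound (5 µM final) incubated at 37 °C in triplicate, sampled at 0 and 2 h into ice-cold acetonitrile, then LC-MS analysis.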
Background: Liver microsomes are a subcellular fraction often used to study metabolism.

Data set [7] deals with VEGF dependent retinal neovascularization. Description: Neonatal rat model of retinopathy of prematurity. It is filed as in vivo. Particulars: Model ROP, intravitreal. As for the experimental part: A second model of VEGF dependent retinal neovascularization was employed to evaluate the activities of this series of compounds. […] The animals are exposed for 24 hours to a concentration of 50% oxygen followed by 24 hours at a concentration of 10% oxygen. This alternating cycle of hyperoxia followed by hypoxia is repeated 7 times after which the animals are removed to room air (P14). Compounds are administered via intravitreal injection upon removal to room air and the animals are sacrificed 6 days later (P20). The isolated retinas are then isolated, stained mounted and analyzed as detail above in the development model. The effectiveness was also graded as is described for the development model.

For data set [8] the following is noted: vehicle PEG400:H2O pH 2.3 60:40.
Data set [9] in a line: in vivo. As to conditions: mouse, plasma, pH 2.3.
The target of data set [10] is unphosphorylated VEGF-R2Δ50 (Homo sapiens, UniProt P35968, DEL940-989/E990V). Description: biochemical. As to conditions: read-out: FLVK ** (% inhibition).
The target in data set [11] is T2, human CHK1 (FL-CHK1) (Homo sapiens, UniProt O14757).
T2 construct: C-terminally His-tagged full-length human CHK1 (FL-CHK1) was expressed using the baculovirus/insect cell system; made in house; host or cells: baculovirus/insect cell system
T2 sequence (O14757 1-476): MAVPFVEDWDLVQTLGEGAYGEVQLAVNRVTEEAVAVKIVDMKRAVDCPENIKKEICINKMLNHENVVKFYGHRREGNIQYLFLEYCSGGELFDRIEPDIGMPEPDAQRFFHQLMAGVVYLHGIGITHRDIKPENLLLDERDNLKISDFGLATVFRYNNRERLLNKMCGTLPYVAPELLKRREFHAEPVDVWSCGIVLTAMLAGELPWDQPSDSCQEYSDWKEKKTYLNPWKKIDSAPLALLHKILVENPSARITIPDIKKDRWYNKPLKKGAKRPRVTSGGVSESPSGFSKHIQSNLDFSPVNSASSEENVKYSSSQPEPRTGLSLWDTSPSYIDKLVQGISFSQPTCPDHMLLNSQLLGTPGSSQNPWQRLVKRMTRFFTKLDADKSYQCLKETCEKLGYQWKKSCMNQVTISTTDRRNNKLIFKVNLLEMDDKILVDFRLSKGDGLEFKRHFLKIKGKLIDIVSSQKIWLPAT
As to the kind of experiment: CHK1 coupled spectrophotometric assay. The class given is biochemical. Particulars: Table 1; read-out: CHK -1* (Ki). The source says: CHK1 Construct for Assay: C-terminally His-tagged full-length human CHK1 (FL-CHK1) was expressed using the baculovirus/insect cell system. […] The protein was purified by conventional chromatographic techniques.
The production of ADP from ATP that accompanies phosphoryl transfer to the synthetic substrate peptide Syntide-2 ([…]) was coupled to oxidation of NADH using phosphoenolpyruvate (PEP) through the actions of pyruvate kinase (PK) and lactic dehydrogenase (LDH). The oxidation of NADH was monitored by following the decrease of absorbance at 340 nm (∈340 = 6.22 cm^-1 mM^-1) using a HP8452 spectrophotometer. […] Assays were initiated with 10 nM of FL-CHK1. Ki values were determined by measuring initial enzyme activity in the presence of varying concentrations of test compounds. The data were analyzed using Enzyme Kinetic and Kaleidagraph software.

[12] abbreviates: Table 1, compound concentration 1 µM.
Setting [13] is: Table 1, + albumin, read-out: HUVEC + albumin IC50.
Setting [14] is: MV522, Table 1, read-out: MV522 IC50.
The mark [15] stands for this setting: 10 mg/ml, vehicle PEG/water 70:30.
[16] abbreviates: 5 mg/ml, vehicle PEG/water 70:30.

Like-named read-outs stand apart in the source and are kept apart here.

T1 sequence (Q02763 775-1122): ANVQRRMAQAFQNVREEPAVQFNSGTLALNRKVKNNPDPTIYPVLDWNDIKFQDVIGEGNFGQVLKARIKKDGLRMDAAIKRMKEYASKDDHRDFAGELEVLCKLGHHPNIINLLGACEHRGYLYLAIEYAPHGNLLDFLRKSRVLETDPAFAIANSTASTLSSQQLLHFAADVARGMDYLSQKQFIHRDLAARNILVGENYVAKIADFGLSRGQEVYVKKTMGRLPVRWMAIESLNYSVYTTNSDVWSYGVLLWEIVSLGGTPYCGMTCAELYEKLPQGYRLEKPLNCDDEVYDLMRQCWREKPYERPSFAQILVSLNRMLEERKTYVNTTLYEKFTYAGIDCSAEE
Chain of LCK tyrosine kinase (P06239 223-509 P223M/C224D): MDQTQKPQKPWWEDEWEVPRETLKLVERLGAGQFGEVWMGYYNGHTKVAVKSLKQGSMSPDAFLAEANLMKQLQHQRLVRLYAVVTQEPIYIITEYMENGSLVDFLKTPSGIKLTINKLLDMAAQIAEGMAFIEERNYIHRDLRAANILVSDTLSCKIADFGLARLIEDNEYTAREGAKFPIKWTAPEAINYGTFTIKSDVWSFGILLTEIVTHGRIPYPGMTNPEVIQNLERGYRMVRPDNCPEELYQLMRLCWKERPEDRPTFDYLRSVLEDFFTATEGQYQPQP
Chain of human FGF-R1 (P11362 456-766 L457V/C488A/C584S): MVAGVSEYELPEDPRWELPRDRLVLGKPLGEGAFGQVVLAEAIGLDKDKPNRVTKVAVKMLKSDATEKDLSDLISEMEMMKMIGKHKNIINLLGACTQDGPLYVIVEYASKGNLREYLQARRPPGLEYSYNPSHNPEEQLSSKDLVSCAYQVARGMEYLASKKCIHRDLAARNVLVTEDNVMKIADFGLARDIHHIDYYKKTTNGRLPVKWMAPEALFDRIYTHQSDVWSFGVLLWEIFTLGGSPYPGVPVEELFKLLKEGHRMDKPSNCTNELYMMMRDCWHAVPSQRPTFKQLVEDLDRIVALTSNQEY
Chain of unphosphorylated VEGF-R2Δ50 (P35968 with tags, fused parts or gaps DEL940-989/E990V limits assumed): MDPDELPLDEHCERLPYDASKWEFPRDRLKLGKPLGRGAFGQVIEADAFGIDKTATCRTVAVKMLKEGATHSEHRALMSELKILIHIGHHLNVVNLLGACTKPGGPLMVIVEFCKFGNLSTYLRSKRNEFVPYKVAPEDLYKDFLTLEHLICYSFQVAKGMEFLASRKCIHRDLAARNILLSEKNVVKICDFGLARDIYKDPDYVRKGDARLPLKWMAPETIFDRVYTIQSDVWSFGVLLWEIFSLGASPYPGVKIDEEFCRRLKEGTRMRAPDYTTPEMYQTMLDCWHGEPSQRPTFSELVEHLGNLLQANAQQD

Take `O=C(Nc1cccc(Oc2ccc3c(/C=C/c4cccs4)n[nH]c3c2)c1)c1ccccc1` [Reference Example 30(a), 6-[3-benzamidophenoxy]-3-E-[2-(thien-2-yl)thenyl]-1H-indazole]: the inhibition at 1 µM in data set [1] (Table 1) amounted to 94%; in data set [2] (setting [12]) it was 45%; in [3], 19%. Also, the IC50 in data set [4] (setting [13]) is 22 nM; in data set [4] (Table 1, read-out: HUVEC IC50), 1.6 nM; in [5] (setting [14]), 5.7 µM. Moreover, the “% remain (HLM, 2 h)” value in [6] is on record as 64%. Besides, the “% Inhibition” value in data set [7] (setting [15]) amounted to 48%. The “Initial Evaluation” value in data set [7] (setting [15]) was “++ (two pluses being judged to be approximately 25-75 % regression)”.

Take `CN(c1cccc(NC(=O)c2ccccc2)c1)c1ccc2c(/C=C/c3ccc4c(c3)OCO4)n[nH]c2c1` [16(a), N-(3-{[3-(2-Benzo[1,3]dioxol-5-yl-vinyl)-1H-indazol-6-yl]-methyl-amino}-phenyl)-benzamide]: the inhibition at 1 µM in [1] (Table 1) was determined as 65%; in [2] (setting [12]), 28%; in [3], 10%. The half-inhibitory concentration (IC50) came to 112 nM in [4] (setting [13]) and 8 µM in [5] (setting [14]). For the same compound, in data set [6], the remaining at 2 h, 5 µM stood at 7%.

Consider `O=C(Nc1cccc(Oc2ccc3c(/C=C/c4ccc(Cl)cc4)n[nH]c3c2)c1)c1ccccc1` [6(a), N-(3-[3-[2-(4-Chloro-phenyl)-vinyl]-1H-indazol-6-yloxy}-phenyl)-benzamide], for which the figures for the inhibition at 1 µM in data set [1] (Table 1) and in [2] (setting [12]) were 67% and 33%, respectively. Further, the IC50 was found to be 50 nM in data set [4] (setting [13]); 8.5 nM in [4] (Table 1, read-out: HUVEC IC50); 3.5 µM in data set [5] (setting [14]). For the same compound, the remaining at 2 h, 5 µM in [6] was found to be 69%. Besides, the “Initial Evaluation” value in data set [7] (5 mg/ml, vehicle PEG/water) is listed as “++ (two pluses being judged to be approximately 25-75 % regression)”.

`Cc1cccc(C(=O)Nc2cccc(Oc3ccc4c(/C=C/c5ccccc5)n[nH]c4c3)c2)c1` [5(b), 3-Methyl-N-[3-(3-styryl-1h-indazol-6-yloxy)-phenyl]-benzamide]: the inhibition at 1 µM in data set [2] (setting [12]) turned out to be 78%. Moreover, the IC50 in data set [4] (setting [13]) was 33 nM; in data set [4] (Table 1, read-out: HUVEC IC50), 3.7 nM; in [5] (setting [14]), 8.5 µM. For the same compound, the “% Inhibition” value in [7] (setting [16]) stood at 45%. The “Initial Evaluation” value in data set [7] (setting [16]) is given as “++ (two pluses being judged to be approximately 25-75 % regression)”.

Regarding `Cc1cccc(C(=O)Nc2cccc(Oc3ccc4c(-c5cc6ccccc6[nH]5)n[nH]c4c3)c2)c1` [6(b), N-{3-[3-(2-Indolyl)-1H-indazol-6-yloxy]-phenyl}-3-methyl benzamide], the inhibition at 1 µM in data set [1] (Table 1) is 95%; in data set [2] (setting [12]) it was 81%. For the same compound, the IC50 worked out at 60 nM in data set [4] (setting [13]); 8 nM in data set [4] (Table 1, read-out: HUVEC IC50); 4 µM in data set [5] (setting [14]). Besides, in data set [7] (setting [15]), the “Initial Evaluation” value was “++ (two pluses being judged to be approximately 25-75 % regression)”.

In turn, `CC(=O)Nc1cccc(Oc2ccc3c(/C=C/c4ccccc4)n[nH]c3c2)c1` [4(b), N-[3-(3-Styryl-1H-indazol-6-yloxy)-phenyl]-acetamide] had a Ki in [1] of 0.0049 µM. The inhibition at 1 µM was determined as 13% in data set [2] (setting [12]) and 29% in data set [3]. In addition, the IC50 in data set [4] (setting [13]) was 205 nM; in [4] (Table 1, read-out: HUVEC IC50), 25 nM; in [5] (setting [14]), 3.2 µM. For the same compound, in data set [6], the remaining at 2 h, 5 µM amounted to 63%.

Regarding `O=C(c1cccc(NC(=O)c2ccccn2)c1)c1ccc2c(/C=C/c3ccccc3)n[nH]c2c1` [19(k), 6-[3-(pyridin-2-ylcarboxamido)benzoyl)-3-E-styryl-1H-indazole], the inhibition at 1 µM came to 41% in [1] (Table 1) and 37% in [2] (setting [12]). Further, the IC50 in data set [4] (Table 1, read-out: HUVEC IC50) stood at 2.6 nM; in data set [5] (setting [14]), 4 µM. Further, the “% remain (HLM, 2 h)” value in data set [6] turned out to be 58%. In addition, the T1/2 in data set [8] (IP, 25 mg/kg) turned out to be 2.2 h; in data set [8] (PO, 50 mg/kg), 2.2 h. Moreover, the “Cmin (7 hr conc.)” value in data set [8] (PO, 50 mg/kg) amounted to 4 ng/mL. The AUC in data set [9] (ip, 25 mg/kg) came out at 428 ng·h/mL; in data set [9] (po, 50 mg/kg), 19 ng·h/mL. Further, the inhibition at 0.05 µM in data set [10] came to 100%.

Consider `Cc1cnc(C(=O)Nc2cccc(Oc3ccc4c(/C=C/c5ccccc5)n[nH]c4c3)c2)s1` [5(a), 5-Methyl-thiazole-2-carboxylic acid {3-(3-styryl-1H-indazol-6-yloxy)-phenyl]-amide], for which the inhibition at 1 µM came out at 28% in [2] (setting [12]) and 44% in [3]. Moreover, the IC50 in data set [4] (Table 1, read-out: HUVEC IC50) was determined as 12 nM; in data set [5] (setting [14]), 9.6 µM.

With `COc1cc(-c2ccc3c(-c4cc5ccccc5[nH]4)n[nH]c3c2)ccc1O` [2(d), 3-(1H-Indol-2-yl)-6-(3-methoxy-4-hydroxy-phenyl)-1H-indazole], the Ki amounted to 0.068 µM in data set [1] (Table 1, read-out: FGF-P* (Ki)) and 0.091 µM in data set [11]. For the same compound, the inhibition at 1 µM in data set [2] was determined as 43%. In addition, the inhibition at 10 µM in data set [3] (read-out: % Inhibition Tie2-P, compound tested at 10 µM) was 90%. Besides, the IC50 in data set [4] (read-out: HUVEC IC50 (nM)) is 450 nM; in data set [5] (MV522, read-out: MV522 IC50 (µM)) it was 0.18 µM.

Broadly, the inhibition is the percentage by which the read-out fell short of the control. In general, IC50 refers to the concentration needed to halve the response being measured. By % Inhibition is commonly meant the change of the read-out against control, counted positive when it falls. Broadly, the Ki is the dissociation constant of the complex between target and ligand, obtained from inhibition or displacement. Broadly, the AUC is concentration integrated over time. Higher therefore signals more exposure.

Source of the values: EP1614683B1, “Indazole compounds and pharmaceutical compositions for inhibiting protein kinases, and methods for their use” (priority 1999, dated 2001).
